Test results published in patent US8999921B2, “Process for diagnosing rheumatic diseases” (Cypress Bioscience, Inc., priority 2005, dated 2015).

Assays:
[1] = system: antibodies to the polypeptides of the invention; test: Follow-up of antibody titer (ELISA based on the polypeptide) and DAS score in treated RA patients; type: in vivo, human; details: for antibody titers, fraction of the starting value: patients with low disease activity (average DAS 2.8), in the course of 1-2 years, on average; for alteration in the DAS score due to treatment: severe rheumatoid arthritis (average DAS score of 4.9)
Source text: Patients having low disease activity (average DAS score of 2.8) were identified by an ELISA based on the polypeptide of the invention (<300 U/ml on average). Correlating with the success of treatment (DAS score less than 1.5 after treatment) with sulfasalazine or cortisone, the antibody titers were reduced to, on average, ⅙ of the starting value in the course of 1-2 years.
Patients suffering from severe rheumatoid arthritis (average DAS score of 4.9) had, on average, an antibody titer of >1000 U/ml. […] In parallel with the altered antibody titer, patients reported during anamnesis a substantially more positive overall evaluation of their subjective situation regarding the disease, i.e. the diagnostic agent of the invention is also suitable for quality control of the therapy of a severe rheumatoid arthritis.

[2] = molecular target: T1, antibody binding to mutated vimentin (Homo sapiens, UniProt P08670, A54Y/A67Y/G16R/G41R/G59R/G76R/P18T/P24T/P46T/P75T/R78S); test: Blocking of antibody binding to mutated vimentin in vitro (ELISA, RA sera)
T1 construct: His-tag; made in house; host or cells: E. coli
Method: To prepare an extract from green tea, 5 g of any commercially available tea were covered with 10 ml of 80% DMSO and stirred overnight. The solution was centrifuged at 13 000 rpm for 10. min and defined as tea extract. In contrast to the above solid substances 1, 2 and 4-6, 10 μl/ml tea extract of this preparation were employed. Antibody binding in the presence and absence of substances was analyzed in an ELISA for which microtiter plates were prepared analogously to Example 2. Different sera of RA patients were used in dilutions of from 1:100 to 1:400. Blocking of antibody binding was induced by preincubating 100 μl of the diluted serum with the substances or tea solutions indicated for 10 min. Subsequently, the remaining crossreaction was analyzed by transferring the 100 μl of serum-substance mixture to the cavities of said microtiter plate. According to the procedure of a classical ELISA, the bound antibodies were detected by means of a HRP-conjugated anti-human IgG. FIG. 3 depicts by way of example the results obtained using patient serum No. 400725.

[3] = Oral administration of freeze-dried tea extract to rats, plasma analysis by HPLC and GC/MS; type: in vivo
Source text: Therefore the tea extracts prepared by us (see Example 7) were freeze-dried and reconstituted with cocoa oil or salmon oil. After oral administration of an extract prepared from 5 g of green tea (5 g/kg of body weight) to rats, blood was taken every half hour and analyzed by means of HPLC and GC/MS.

vimentin = vimentin (Homo sapiens, UniProt P08670); details: Ermakova et al. 2005; cited from earlier work
[4] = extract from 5 g green tea (5 g/kg of body weight)

T1 sequence (P08670 whole entry G16R/P18T/P24T/G41R/P46T/A54Y/G59R/A67Y/P75T/G76R/R78S): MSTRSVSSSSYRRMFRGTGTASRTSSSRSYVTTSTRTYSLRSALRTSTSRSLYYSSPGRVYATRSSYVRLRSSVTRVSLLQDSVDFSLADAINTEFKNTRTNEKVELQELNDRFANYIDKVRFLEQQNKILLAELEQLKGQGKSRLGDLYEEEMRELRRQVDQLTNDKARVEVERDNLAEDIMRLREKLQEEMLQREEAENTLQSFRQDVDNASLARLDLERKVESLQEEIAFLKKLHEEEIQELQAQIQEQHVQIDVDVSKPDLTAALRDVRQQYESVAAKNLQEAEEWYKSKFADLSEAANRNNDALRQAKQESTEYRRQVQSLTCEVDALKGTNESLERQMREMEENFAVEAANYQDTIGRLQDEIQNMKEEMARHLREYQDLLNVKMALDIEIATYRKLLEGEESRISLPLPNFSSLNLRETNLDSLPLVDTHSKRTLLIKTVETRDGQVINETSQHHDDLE
Sequence of vimentin (P08670 whole entry, species assumed): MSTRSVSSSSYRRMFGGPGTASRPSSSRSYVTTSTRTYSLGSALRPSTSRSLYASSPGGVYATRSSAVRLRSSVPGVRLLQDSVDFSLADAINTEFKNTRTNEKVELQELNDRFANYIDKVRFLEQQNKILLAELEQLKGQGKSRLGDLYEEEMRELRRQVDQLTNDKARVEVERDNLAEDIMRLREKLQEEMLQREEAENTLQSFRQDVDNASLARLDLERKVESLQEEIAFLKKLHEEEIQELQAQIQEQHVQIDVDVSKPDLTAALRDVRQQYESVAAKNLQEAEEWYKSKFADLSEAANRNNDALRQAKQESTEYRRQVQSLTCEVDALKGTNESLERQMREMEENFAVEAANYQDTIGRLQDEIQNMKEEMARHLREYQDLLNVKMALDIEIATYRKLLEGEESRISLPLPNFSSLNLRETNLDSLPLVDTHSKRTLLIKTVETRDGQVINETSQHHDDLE

Which “antibody titers, fraction of the starting value” [1] does the source give for `O=C(O)c1cc(/N=N/c2ccc(S(=O)(=O)Nc3ccccn3)cc2)ccc1O` [sulfasalazine] here?
Its value is “⅙”.

For “Remicade: marketed drug used to treat severe rheumatoid arthritis”, which “alteration in the DAS score due to treatment” value [1] is on record?
Its value is “no significant alteration”.

With `C[C@]12CCC(=O)C=C1CC[C@@H]1[C@@H]2C(=O)C[C@@]2(C)[C@H]1CC[C@]2(O)C(=O)CO` [cortisone] as the compound, how does the “antibody titers, fraction of the starting value” [1] read?
The value was “⅙”.

Which “alteration in the DAS score due to treatment” value [1] does the source give for `CN(Cc1cnc2nc(N)nc(N)c2n1)c1ccc(C(=O)N[C@@H](CCC(=O)O)C(=O)O)cc1` [methotrexate] here?
The value was “no significant alteration”.

Which “blocking of antibody binding” value ([2]; competition experiments, maximum) does the source give for `Oc1cc(O)c2c(c1)O[C@H](c1ccc(O)c(O)c1)[C@H](O)C2` [EC, Epicatechin] here?
The value was at most 10%.

Which results are given for `O=C(O[C@@H]1Cc2c(O)cc(O)cc2O[C@@H]1c1cc(O)c(O)c(O)c1)c1cc(O)c(O)c(O)c1` [EGCG, Epigallocatechin gallate]?
blocking of formation of autoimmune complexes of autoantibodies to mutated vimentin [2]: blocked in a concentration-dependent manner; blocking of antibody binding ([2]; concentration of 10-100 μg/ml): no more than 45%; maximum plasma concentration for EGCG (content of 50% in the extract) [3, 4]: about 245 μg/ml; maximum plasma concentration of EC and EGCG (5-13% of the extract mass) [3, 4]: 75 µg/mL; time of maximum plasma concentration after intake ([3]; extract from 5 g green tea (5 g/kg of body weight) in cocoa oil or salmon oil): About 2 hours; binding to vimentin (vimentin): binds to vimentin
